A word on the IC50: it is the concentration at which inhibition is half-maximal.

Experiment [1] addresses CDK4 (cyclin dependent kinase 4) (Homo sapiens, UniProt P11802). The experiment in a line: CDK4 kinase selectivity assay. Particulars: Table 4 kinase selectivity; 10 = approximate value; read-out: IC50, Assay 3 CDK4. Format: biochemical. Here is the method: (§1) Assays to test compound inhibition of other kinases were preformed using methods that measure the amount of phosphorylation of a biotinylated peptide substrate. Biotinylated peptide substrates were selected from the literature as appropriate for the enzyme being evaluated. […] Assay conditions vary slightly for each protein kinase, for example, insulin receptor kinase requires 10 mM MnCl2 for activity and Calmodulin-dependent protein kinase requires calmodulin and 2 mM CaCl2. The reaction mixture was dispensed into the wells of a streptavidin coated Flashplate and 1 μl drug stock in 100% DMSO was added to a 100 μl reaction volume resulting in a final concentration of 1% DMSO in the reaction. Enzyme was diluted in 50 mM Tris-HCl pH=8.0, 0.1% BSA and added to each well. The reaction was incubated for one hour at 30° C. in the presence of compound. After one hour the reaction mix was aspirated from the plate and the plate was washed with PBS containing 100 mM EDTA. The plate was read on a scintillation counter to determine ^33P-γ-ATP incorporated into the immobilized peptide. Test compounds were assayed in duplicate at 8 concentrations [100 tM, 10 μM, 1 μM, 100 nM, 10 nM, 1 nM, 100 μM, 10 μM]. A maximum and minimum signal for the assay was determined on each plate. The IC50 was calculated from the dose response curve of the percent inhibition of the maximum signal in the assay according to the formula [max signal−background/test compound signal−background (100)=% inhibition] by graphing the percent inhibition against the log concentration of test compound. Known inhibitor compounds appropriate for the kinase being assayed were also included on each plate.
(§2) VEGF-R (vascular endothelial growth factor receptor-2) is a fusion protein containing a polyhistidine tag at the N-terminus followed by amino acids 786-1343 of the rat VEGF-R2 kinase domain (GenBank Accession #U93306). CDK1 (cyclin dependent kinase 1) is isolated from insect cells expressing both the human CDK1 catalytic subunit and its positive regulatory subunit cyclin B (New England Biolabs, Beverly, Mass., Cat. #6020). CDK4 (cyclin dependent kinase 4) contains amino acids 769 to 921 of the mouse […] protein found in the GST-retinoblastoma protein construct (Santa Cruz Biotechnology, Santa Cruz, Calif.; Cat. #SC-4112). Insulin Receptor Kinase consists of residues 941-1313 of the cytoplasmic domain of the beta-subunit of the human insulin receptor (BIOMOL, Plymouth Meeting, Pa., Cat. #SE-195). Protein Kinase A is the catalytic subunit of cAMP dependent protein kinase-A purified from bovine heart (Upstate Biotech, Lake Placid, N.Y., Cat#14-114). PKC (protein kinase-C) is the gamma or beta isoform of the human protein produced in insect cells (BIOMOL, Plymouth Meeting, Pa., Cat. #SE-143). […]

For the next experiment, the target named is T1, Protein Kinase A (Bos taurus, UniProt P00517).
T1 construct: purified from bovine heart; purchased Upstate Biotech 14-114; host or cells: bovine heart
The experiment in a line: Protein Kinase A selectivity assay. Format: biochemical, bovine. Particulars: Table 4 kinase selectivity; read-out: IC50, Assay 5 Protein Kinase A. Here is the method:
as §1
as §2, with “#SE-143). Casein Kinase 1 is a truncation at amino acid 318 of the C-terminal portion of the rat CK1 delta isoform produced in E.coli (New England Biolabs, Beverly, Mass., Cat. #6030). Casein Kinase 2 includes the alpha and beta subunits of the human CK2 protein produced in E.coli (New England Biolabs, Beverly, Mass., Cat. #6010). Calmodulin Kinase (calmodulin-dependent protein kinase 2) is a truncated version of the alpha subunit of the rat protein produced in insect cells (New England Biolabs, Beverly, Mass., Cat. #6060). Glycogen Synthase Kinase-3 is the beta isoform of the rabbit enzyme produced in E. coli (New England Biolabs, Beverly, Mass., Cat. #6040). MAP Kinase is the rat ERK-2 isoform containing a polyhistidine tag at the N-terminus produced in E. coli. and activated by phosphorylation with MEK1 prior to purification (BIOMOL, Plymouth Meeting, Pa., Cat. #SE-137). EGFR (epidermal growth factor receptor) is purified from human A431 cell membranes (Sigma, St. Louis, Mo., Cat.# E3641). PDGF-R (platelet derived growth factor receptor) is a fusion protein containing a polyhistidine tag at the N-terminus followed by nucleotides 1874-3507 of the human PDGF-R beta subunit kinase domain (Accession #M21616).” for “#SE-143).”

The target of a further experiment is HER2 (Homo sapiens, UniProt P04626). The experiment in a line: HER2 kinase selectivity assay. Type of experiment: biochemical. Particulars: Table 4 kinase selectivity; read-out: IC50, Assay 16 HER2. Here is the method: Assays to test compound inhibition of other kinases were preformed using methods that measure the amount of phosphorylation of a biotinylated peptide substrate. Biotinylated peptide substrates were selected from the literature as appropriate for the enzyme being evaluated. The general procedure used to assay for kinase activity is as follows: A kinase reaction mix was prepared in 50 mM Tris-HCl pH=8, 10 mM MgCl2, 0.1 mM NaVO4, 1 mM DTT, 5-10 μM ATP, 0.25-1 μM biotinylated peptide substrate, 0.2-0.8 μCuries per well ^33P-γ-ATP [2000-3000 Ci/mmol]. Assay conditions vary slightly for each protein kinase, for example, insulin receptor kinase requires 10 mM MnCl2 for activity and Calmodulin-dependent protein kinase requires calmodulin and 2 mM CaCl2. The reaction mixture was dispensed into the wells of a streptavidin coated Flashplate and 1 μl drug stock in 100% DMSO was added to a 100 μl reaction volume resulting in a final concentration of 1% DMSO in the reaction. Enzyme was diluted in 50 mM Tris-HCl pH=8.0, 0.1% BSA and added to each well. The reaction was incubated for one hour at 30° C. in the presence of compound. After one hour the reaction mix was aspirated from the plate and the plate was washed with PBS containing 100 mM EDTA. The plate was read on a scintillation counter to determine ^33P-γ-ATP incorporated into the immobilized peptide. Test compounds were assayed in duplicate at 8 concentrations [100 tM, 10 μM, 1 μM, 100 nM, 10 nM, 1 nM, 100 μM, 10 μM]. A maximum and minimum signal for the assay was determined on each plate. The IC50 was calculated from the dose response curve of the percent inhibition of the maximum signal in the assay according to the formula [max signal−background/test compound signal−background (100)=% inhibition] by graphing the percent inhibition against the log concentration of test compound. Known inhibitor compounds appropriate for the kinase being assayed were also included on each plate.
Sequence of HER2 (P04626 23-1255, species assumed): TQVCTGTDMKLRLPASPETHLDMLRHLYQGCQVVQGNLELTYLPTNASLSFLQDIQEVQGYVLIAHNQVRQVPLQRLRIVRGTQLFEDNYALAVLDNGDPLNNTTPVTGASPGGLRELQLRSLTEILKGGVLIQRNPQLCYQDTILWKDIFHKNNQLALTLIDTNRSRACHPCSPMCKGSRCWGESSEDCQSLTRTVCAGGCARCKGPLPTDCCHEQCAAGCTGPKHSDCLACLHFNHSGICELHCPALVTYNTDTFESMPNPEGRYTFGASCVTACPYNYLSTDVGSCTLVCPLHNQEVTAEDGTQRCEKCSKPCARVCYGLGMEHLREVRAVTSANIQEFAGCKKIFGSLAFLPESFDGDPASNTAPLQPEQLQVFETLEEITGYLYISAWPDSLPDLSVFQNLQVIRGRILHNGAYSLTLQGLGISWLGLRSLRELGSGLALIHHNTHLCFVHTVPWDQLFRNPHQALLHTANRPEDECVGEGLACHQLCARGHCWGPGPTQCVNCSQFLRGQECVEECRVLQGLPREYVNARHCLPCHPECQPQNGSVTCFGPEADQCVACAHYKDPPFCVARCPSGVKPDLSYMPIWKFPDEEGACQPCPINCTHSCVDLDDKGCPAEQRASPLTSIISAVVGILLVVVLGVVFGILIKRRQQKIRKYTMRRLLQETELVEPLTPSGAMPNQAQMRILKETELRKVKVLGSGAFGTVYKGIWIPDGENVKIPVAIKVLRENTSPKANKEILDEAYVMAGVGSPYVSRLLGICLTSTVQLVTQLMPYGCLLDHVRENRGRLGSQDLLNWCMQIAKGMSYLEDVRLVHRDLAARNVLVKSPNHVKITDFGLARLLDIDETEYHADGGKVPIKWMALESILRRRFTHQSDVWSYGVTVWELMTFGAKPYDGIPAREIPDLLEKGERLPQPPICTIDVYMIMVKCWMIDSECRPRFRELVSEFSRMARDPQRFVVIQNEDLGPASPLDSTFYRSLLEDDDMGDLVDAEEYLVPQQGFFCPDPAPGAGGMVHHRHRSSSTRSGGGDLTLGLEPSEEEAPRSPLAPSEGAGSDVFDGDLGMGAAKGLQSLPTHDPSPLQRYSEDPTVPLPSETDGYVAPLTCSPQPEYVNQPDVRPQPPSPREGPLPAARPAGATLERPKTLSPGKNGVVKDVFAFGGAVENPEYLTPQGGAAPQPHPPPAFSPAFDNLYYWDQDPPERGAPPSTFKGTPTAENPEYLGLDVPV

Sequence of CDK4 (cyclin dependent kinase 4) (P11802 whole entry, species assumed): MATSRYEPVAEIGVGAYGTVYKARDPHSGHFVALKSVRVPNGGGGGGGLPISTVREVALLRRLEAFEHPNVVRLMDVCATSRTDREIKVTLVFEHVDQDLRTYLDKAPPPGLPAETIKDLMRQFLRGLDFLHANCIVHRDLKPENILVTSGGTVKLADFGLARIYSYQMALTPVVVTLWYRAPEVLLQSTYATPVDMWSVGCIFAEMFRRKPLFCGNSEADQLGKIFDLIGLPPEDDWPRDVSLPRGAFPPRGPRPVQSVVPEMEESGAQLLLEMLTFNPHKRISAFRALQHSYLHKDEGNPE
Sequence of CDK4 (cyclin dependent kinase 4) (P24385 whole entry partner, species assumed): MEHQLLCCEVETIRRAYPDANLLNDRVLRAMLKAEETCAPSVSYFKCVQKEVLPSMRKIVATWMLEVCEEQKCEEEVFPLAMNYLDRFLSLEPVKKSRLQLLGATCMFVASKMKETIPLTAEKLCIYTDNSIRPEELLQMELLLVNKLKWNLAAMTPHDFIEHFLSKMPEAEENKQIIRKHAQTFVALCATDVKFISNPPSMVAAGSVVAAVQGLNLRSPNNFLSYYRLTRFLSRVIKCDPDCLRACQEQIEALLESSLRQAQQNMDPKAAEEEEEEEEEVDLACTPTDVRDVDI

On to `OCCCNc1cncc(-c2cncc(Nc3cccc(Cl)c3)n2)c1` [Cmd 4], for which the figures for the IC50 (in experiment [1]; at Protein Kinase A) were approximately 10 µM and more than 100 µM, respectively.
On to `OCCCCNc1cncc(-c2cncc(Nc3cccc(Cl)c3)n2)c1` [Cmd 32], for which the values for the half-maximal inhibitory concentration (IC50) (in experiment [1]; on Protein Kinase A) were more than 10 µM and more than 100 µM, respectively.
Consider `CN(C)CCNc1cncc(-c2cncc(Nc3cccc(Cl)c3)n2)c1` [Cmd 33, N′-[5-[6-[(3-chlorophenyl)amino]pyrazinyl]-3-pyridinyl]-N^2,N^2-dimethyl-1,2-ethanediamine], for which the values for the half-maximal inhibitory concentration (IC50) (in experiment [1]; at Protein Kinase A) were approximately 10 µM and more than 100 µM, respectively.
Regarding `CN(C)CCCNc1cncc(-c2cncc(Nc3cccc(Cl)c3)n2)c1` [Cmd 35], the half-inhibitory concentration (IC50) is approximately 10 µM in experiment [1] and more than 100 µM at Protein Kinase A.
On to `O=C(NCCCO)c1cncc(-c2cncc(Nc3cccc(Cl)c3)n2)c1` [Cmd 39], for which the IC50 at Protein Kinase A is more than 100 µM.
`Clc1cccc(Nc2cncc(-c3cncc(NCCCc4ccncc4)c3)n2)c1` [Cmd 71]: the IC50 on Protein Kinase A and on HER2 was more than 100 µM each time.
Take `Clc1cccc(Nc2cncc(-c3cncc(NCCCc4cccnc4)c3)n2)c1` [Cmd 72]: the values for the half-maximal inhibitory concentration (IC50) on Protein Kinase A and on HER2 were more than 100 µM and 9.7 µM, respectively.
For `Clc1cccc(Nc2cncc(-c3cncc(NCCCN4CCCCC4)c3)n2)c1` [Cmd 73] the same measures were more than 100 µM and 7.2 µM.
Turning to `Clc1cccc(Nc2cncc(-c3cncc(NCCCn4cccn4)c3)n2)c1` [Cmd 75], the IC50 on Protein Kinase A is more than 100 µM; at HER2, 3 µM.
For `Clc1cccc(Nc2cncc(-c3cncc(NCCCn4cncn4)c3)n2)c1` [Cmd 76] the same measures were more than 100 µM and 2.24 µM.

Source of the values: US6710048B2, “Pyrazine derivatives as modulators of tyrosine kinases” (Ortho-McNeil Pharmaceutical, Inc., priority 2000, dated 2004).
